In experiment [1] the target is T1, Histone-lysine N-methyltransferase EHMT1 (Homo sapiens, UniProt Q9H9B1).
T1 sequence (Q9H9B1 whole entry): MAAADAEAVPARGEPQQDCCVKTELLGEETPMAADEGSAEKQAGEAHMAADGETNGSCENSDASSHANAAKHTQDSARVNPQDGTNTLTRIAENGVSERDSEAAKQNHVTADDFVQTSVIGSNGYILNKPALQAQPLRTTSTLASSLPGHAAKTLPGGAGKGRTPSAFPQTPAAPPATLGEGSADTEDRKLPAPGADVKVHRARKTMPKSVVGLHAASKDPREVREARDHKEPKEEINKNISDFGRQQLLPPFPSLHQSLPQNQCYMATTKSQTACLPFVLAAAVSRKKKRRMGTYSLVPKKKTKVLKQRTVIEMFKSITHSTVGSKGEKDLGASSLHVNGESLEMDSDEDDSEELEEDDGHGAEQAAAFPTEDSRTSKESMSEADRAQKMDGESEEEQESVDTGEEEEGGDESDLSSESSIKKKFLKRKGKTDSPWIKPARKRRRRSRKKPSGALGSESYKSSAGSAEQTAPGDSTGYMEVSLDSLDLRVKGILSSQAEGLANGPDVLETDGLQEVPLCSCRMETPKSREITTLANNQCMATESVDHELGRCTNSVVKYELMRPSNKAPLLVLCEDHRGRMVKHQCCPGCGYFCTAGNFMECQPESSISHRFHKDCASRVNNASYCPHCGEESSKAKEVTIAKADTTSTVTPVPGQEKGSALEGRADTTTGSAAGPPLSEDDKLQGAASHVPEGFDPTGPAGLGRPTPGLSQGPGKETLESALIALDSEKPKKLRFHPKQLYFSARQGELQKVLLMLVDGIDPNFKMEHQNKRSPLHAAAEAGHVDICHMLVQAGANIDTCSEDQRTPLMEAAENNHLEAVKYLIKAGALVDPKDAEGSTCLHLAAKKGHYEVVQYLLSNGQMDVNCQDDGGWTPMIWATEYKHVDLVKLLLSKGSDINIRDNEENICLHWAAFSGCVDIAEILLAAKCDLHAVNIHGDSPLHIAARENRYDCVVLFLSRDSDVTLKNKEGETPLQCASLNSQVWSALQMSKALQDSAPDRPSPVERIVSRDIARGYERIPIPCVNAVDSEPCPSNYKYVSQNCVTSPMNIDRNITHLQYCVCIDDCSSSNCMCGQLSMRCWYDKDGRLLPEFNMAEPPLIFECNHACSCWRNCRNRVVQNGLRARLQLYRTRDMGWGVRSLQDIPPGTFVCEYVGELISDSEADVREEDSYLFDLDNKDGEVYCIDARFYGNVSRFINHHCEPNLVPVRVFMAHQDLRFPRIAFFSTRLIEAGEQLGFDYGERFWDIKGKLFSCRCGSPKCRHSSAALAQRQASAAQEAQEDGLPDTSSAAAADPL
Briefly: Inhibition of wild type recombinant human histone lysine methyltransferase GLP (951 to 1235 residues) expressed in Escherichia coli Rosetta BL21 DE3 PlysS using ARTKQTARKSTGGKA as substrate preincubated for 5 mins followed by substrate/SAM addition measured after 60 mins by MALDI-TOF MS analysis.

Experiment [2] has as its target T2, Histone-lysine N-methyltransferase EHMT1 (Homo sapiens) (UniProt Q9H9B1).
T2 sequence (whole entry): T1 sequence (Q9H9B1 whole entry)
Briefly: Inhibition of wild type recombinant human histone lysine methyltransferase GLP (951 to 1235 residues) expressed in Escherichia coli Rosetta BL21 DE3 PlysS at 100 uM using ARTKQTARKSTGGKA as substrate preincubated for 5 mins followed by substrate/SAM addition measured after 60 mins by MALDI-TOF MS analysis.

In experiment [3] the target is T3, Histone-lysine N-methyltransferase EHMT2 (Homo sapiens, UniProt Q96KQ7).
T3 sequence (Q96KQ7 whole entry): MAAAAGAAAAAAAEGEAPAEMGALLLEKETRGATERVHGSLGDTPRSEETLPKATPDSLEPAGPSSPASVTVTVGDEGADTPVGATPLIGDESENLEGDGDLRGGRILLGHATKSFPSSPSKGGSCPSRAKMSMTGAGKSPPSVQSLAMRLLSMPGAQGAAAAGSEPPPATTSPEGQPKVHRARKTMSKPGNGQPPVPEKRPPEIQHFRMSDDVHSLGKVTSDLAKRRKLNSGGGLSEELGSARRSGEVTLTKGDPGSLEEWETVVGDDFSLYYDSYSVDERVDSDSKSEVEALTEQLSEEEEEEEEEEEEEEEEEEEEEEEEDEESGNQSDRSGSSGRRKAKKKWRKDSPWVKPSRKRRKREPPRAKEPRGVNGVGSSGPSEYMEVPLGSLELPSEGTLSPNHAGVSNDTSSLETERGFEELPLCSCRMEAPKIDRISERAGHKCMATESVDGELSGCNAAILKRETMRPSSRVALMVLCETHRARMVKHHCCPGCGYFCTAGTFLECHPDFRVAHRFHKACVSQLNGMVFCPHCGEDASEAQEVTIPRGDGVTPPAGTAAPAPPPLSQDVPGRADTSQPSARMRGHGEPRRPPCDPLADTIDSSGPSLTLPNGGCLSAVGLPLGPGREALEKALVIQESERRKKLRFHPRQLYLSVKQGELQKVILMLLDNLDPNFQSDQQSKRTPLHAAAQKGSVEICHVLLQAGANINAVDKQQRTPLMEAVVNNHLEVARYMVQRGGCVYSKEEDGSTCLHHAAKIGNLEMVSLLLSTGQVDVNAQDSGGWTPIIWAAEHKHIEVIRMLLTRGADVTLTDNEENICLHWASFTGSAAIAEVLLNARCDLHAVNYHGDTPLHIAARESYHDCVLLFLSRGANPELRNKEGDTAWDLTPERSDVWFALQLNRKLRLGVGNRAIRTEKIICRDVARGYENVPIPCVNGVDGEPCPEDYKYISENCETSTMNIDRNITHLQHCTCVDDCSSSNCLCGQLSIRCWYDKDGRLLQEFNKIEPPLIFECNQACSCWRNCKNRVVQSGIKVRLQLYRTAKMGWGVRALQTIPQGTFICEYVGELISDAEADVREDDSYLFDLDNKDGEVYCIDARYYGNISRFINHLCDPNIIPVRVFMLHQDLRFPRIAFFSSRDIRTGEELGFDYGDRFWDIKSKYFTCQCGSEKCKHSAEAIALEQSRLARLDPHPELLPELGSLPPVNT
Briefly: Inhibition of wild type recombinant human histone lysine methyltransferase G9a (913 to 1193 residues) expressed in Escherichia coli Rosetta BL21 DE3 PlysS using ARTKQTARKSTGGKA as substrate preincubated for 5 mins followed by substrate/SAM addition measured after 60 mins by MALDI-TOF MS analysis.

Experiment [4] concerns the target T2, Histone-lysine N-methyltransferase EHMT1 (Homo sapiens). Briefly: Inhibition of wild type recombinant human histone lysine methyltransferase GLP (951 to 1235 residues) expressed in Escherichia coli Rosetta BL21 DE3 PlysS assessed as zinc ions ejection from Cys4-Zn finger at 100 uM by FluoZin-3 based fluorescence assay.
Experiment [5] has the same target. Briefly: Inhibition of wild type recombinant human histone lysine methyltransferase GLP (951 to 1235 residues) expressed in Escherichia coli Rosetta BL21 DE3 PlysS at 10 uM using ARTKQTARKSTGGKA as substrate preincubated for 5 mins followed by substrate/SAM addition measured after 60 mins by MALDI-TOF MS analysis.
In experiment [6] the target is T4, Histone-lysine N-methyltransferase EHMT2 (Homo sapiens) (UniProt Q96KQ7).
T4 sequence (whole entry): T3 sequence (Q96KQ7 whole entry)
Briefly: Inhibition of wild type recombinant human histone lysine methyltransferase G9a (913 to 1193 residues) expressed in Escherichia coli Rosetta BL21 DE3 PlysS assessed as zinc ions ejection from Cys4-Zn finger at 100 uM by FluoZin-3 based fluorescence assay.

For experiment [7], the target named is T4, Histone-lysine N-methyltransferase EHMT2 (Homo sapiens). Briefly: Inhibition of wild type recombinant human histone lysine methyltransferase G9a (913 to 1193 residues) expressed in Escherichia coli Rosetta BL21 DE3 PlysS at 10 uM using ARTKQTARKSTGGKA as substrate preincubated for 5 mins followed by substrate/SAM addition measured after 60 mins by MALDI-TOF MS analysis.

The target is the same in experiment [8]. Briefly: Inhibition of wild type recombinant human histone lysine methyltransferase G9a (913 to 1193 residues) expressed in Escherichia coli Rosetta BL21 DE3 PlysS at 100 uM using ARTKQTARKSTGGKA as substrate preincubated for 5 mins followed by substrate/SAM addition measured after 60 mins by MALDI-TOF MS analysis.

The source made the active and inactive calls. The calls are words filed in the database; no cut-off is given here. Bounds are passed on as bounds.

Consider `NC(=O)/N=N/C(N)=O` [E927A], for which the IC50 in experiment [1] was 1700 nM; in experiment [3], 500 nM. In addition, the inhibition in experiment [2] and in experiment [8] was above 50% each time. The inhibition entry in experiment [4] and in experiment [6] was “Active” in each case. Besides, the inhibition result in experiment [5] and in experiment [7] was “inactive” each time.
For `O=C1C=CC(=O)c2ccccc21` [NAPHTHOQUINONE], the IC50 in experiment [1] came to 14000 nM; in experiment [3], 2000 nM. For the same compound, the inhibition in experiment [2] and in experiment [8] was above 50% in each case. Moreover, the inhibition entry in experiment [4] and in experiment [6] was “Active” each time. Moreover, the inhibition result in experiment [5] and in experiment [7] was “inactive” in each case.
Regarding `O=[Se](=O)(O)O` [SODIUM SELENATE], the IC50 in experiment [1] and in experiment [3] was above 100000 nM in each case. For the same compound, the inhibition in experiment [2] and in experiment [8] was 10% each time. Moreover, the inhibition entry in experiment [4] and in experiment [6] was “Active” in each case. Also, the inhibition result in experiment [5] and in experiment [7] was “inactive” in each case.
On to `CN(C)C(=S)SSC(=S)N(C)C` [THIRAM], for which the IC50 in experiment [1] was found to be 1100 nM; in experiment [3], 550 nM. The inhibition in experiment [2] and in experiment [8] was above 50% in each case. Also, the inhibition result in experiment [4] and in experiment [6] was “Active” in each case. Further, the inhibition entry in experiment [5] and in experiment [7] was “inactive” in each case.

These data come from ChEMBL document CHEMBL4184305, “Inhibition of histone lysine methyltransferases G9a and GLP by ejection of structural Zn(II)” (Bioorg Med Chem Lett, 2018).
